Here are results for five molecules from US20220281918A1, “PBP BINDING BICYCLIC PEPTIDE LIGANDS” (BicycleTx Limited, priority 2019, published 2022).

Converted amounts (≈) assume the structure as drawn. Numbered stars: 1 amine (or outer) side, 2 acyl side, 3 side chain; on linkers, the order of the positions; unused ones are H or OH. Bridge positions count the residues as written; N and C are the ends. Square brackets hold non-standard residues; d marks the D form. Ends that are not written are not given here. TATA = O=C(CC[*:1])N1CN(C(=O)CC[*:2])CN(C(=O)CC[*:3])C1; fluorescein = label appended via Sar6-Lys linker; Sar = CNCC(=O)O

Experiment [1] deals with T1, PBP3 of E. coli (Escherichia coli, UniProt P0AD68). In words: Fluorescence polarisation direct binding assay, PBP 3. The note with it: PBP Tested 3 (E. coli); fluorescent ligand. As to the method: Fluorescence polarisation was carried out using fluorescein-labelled peptides with unmodified PBP protein and measured using a PHERAstar FS by BMG Labtech fitted with a FP 485 520 520 optic module.
T1 sequence (P0AD68 1-577): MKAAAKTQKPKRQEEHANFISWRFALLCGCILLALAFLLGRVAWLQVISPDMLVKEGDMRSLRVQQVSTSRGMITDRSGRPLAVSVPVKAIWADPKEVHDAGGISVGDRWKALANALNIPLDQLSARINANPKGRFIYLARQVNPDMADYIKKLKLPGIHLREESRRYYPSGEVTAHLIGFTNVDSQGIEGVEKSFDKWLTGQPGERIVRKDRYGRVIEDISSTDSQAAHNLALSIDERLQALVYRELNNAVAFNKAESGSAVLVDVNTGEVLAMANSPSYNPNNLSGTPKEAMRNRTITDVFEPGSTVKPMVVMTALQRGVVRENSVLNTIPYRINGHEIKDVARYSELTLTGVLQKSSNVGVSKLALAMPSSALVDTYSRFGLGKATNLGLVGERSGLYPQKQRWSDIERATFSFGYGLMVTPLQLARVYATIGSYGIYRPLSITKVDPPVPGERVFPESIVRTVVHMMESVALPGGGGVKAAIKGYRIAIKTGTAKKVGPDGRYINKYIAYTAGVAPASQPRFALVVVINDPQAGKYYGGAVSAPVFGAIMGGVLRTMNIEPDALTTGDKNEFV
Fluorescent peptides at 10 mM in DMSO were diluted to 2.5 nM in binding buffer (10 mM HEPES, pH8, 300 mM NaCl, 2% glycerol). A two-fold dilution series of PBP protein was then prepared across 12 wells in binding buffer, with the highest concentration being 21 μM, and the lowest concentration being 17 nM.
10 μl diluted fluorescent peptide (2.5 nM) was added into 12 wells of a 384-Well NBS™ Low Volume Microplate (Fisher Scientific). 10 μl PBP dilution series was then added to the wells containing the fluorescent peptide, and 5 μl binding buffer was added to bring the total volume to 25 μl and the final concentration of peptide tracer to 1 nM. A control well lacking PBP protein was prepared with a final peptide concentration of 1 nM to a final volume of 25 μl in binding buffer. Fluorescence polarisation was measured every 5 minutes for a period of one hour at room temperature. The gain and focal height were optimised using the control well lacking protein. […]
Data were analysed in GraphPad software to derive values for the dissociation constant. […]
Of note, the direct binding values presented herein utilise a peptide ligand bound to a fluorescence tracer molecule.
For orientation: In fluorescence polarisation assays a small probe gives low polarisation when free and higher when bound to something large.

The test system of another experiment is E. coli (ATCC 25922). In words: MIC assay (10 μl), E. coli ATCC 25922. It is filed as cell-based. The note with it: Escherichia coli, ATCC25922. As to the method: (§1) Test compounds were dissolved at high concentration in the required solvent. Where DMSO was used to dissolve test compounds, a DMSO control with equivalent concentrations of DMSO was included for each test organism. For each test organism, a control antibiotic (for which susceptibility of the test organism was known) was tested in parallel. This allowed comparison of results between runs and validated the testing procedure and organism.
(§2) Using aseptic technique, serial 2-fold dilutions (across a 10 point range) of the test compounds were made in 5 μl of cation-adjusted Muller Hinton broth (CA-MHB), on the inverted lid of a 96-well plate. Inoculum for each test organism was made in phosphate-buffered saline (PBS) to match the turbidity of a 0.5 McFarland standard, and then diluted 100-fold. Each well (except negative control well) was inoculated with 5 μl of inoculum. For each test antibiotic, a negative control (no bacteria) was included, consisting of CA-MHB only; along with a positive control (no antibiotic) with CA-MHB and bacteria only. The base of the 96 well plate was used as a lid, and the plate was incubated inside a humidor to reduce evaporation. […] MIC was evaluated based on turbidity, using white light shone through the base of the plate to illuminate droplets.

The next experiment deals with E. Coli GKCW103 (ΔToIC). In words: MIC assay, E. coli GKCW103. The class given is cell-based. The note with it: Escherichia coli. As to the method:
(§3) Minimum inhibitory concentration (MIC) assays were carried out using E. coli strains from the Zgurskaya lab engineered to harbour an inducible pore to make the outer membrane permeable (Krishnamoorthy et al. (2016) doi: https://doi.org/10.1128/AAC.01882-16). Strains used: GKCW101; GKCW102; GKCW103; and GKCW104.
(§4) Overnight cultures of bacteria were first prepared by transferring a single bacterial colony into 5 mL cation-adjusted Mueller-Hinton broth (CA-MHB) supplemented with kanamycin at 50 μg/mL. The following day, overnight cultures were diluted 1/100 in 25 mL CA-MHB with 50 μg/mL kanamycin and cultured until the optical density reached 0.3 as measured on a spectrometer at 600 nm.
(§5) Filter-sterilised arabinose was then added to a concentration of 0.1% w/v and subsequently cultured until the optical density at 600 nm equalled to 1.
(§6) The cultured medium was then diluted to 1×10^6 CFU mL^−1 in CA-MHB supplemented with 0.1% w/v arabinose and 50 μg/mL kanamycin. […]
(§7) A maximum 8 μl of peptide ligand was then added into the wells of column 1 and diluted two-fold across the plate. […] The optical density at 600 nm was then measured for each of the wells using a PheraStar FSx plate reader. MIC values were determined as the cutoff concentration between visible growth and no growth of the bacteria.

In the next experiment the test system is E. Coli GKCW101 (WT). In words: MIC assay, E. coli GKCW101. The class given is cell-based. The note with it: Escherichia coli. Here is the method: as §3, §4, §5, §6, §7
For experiment [2], the system named is S. typhimurium (ATCC 19585). In words: MIC assay (10 μl), S. typhimurium. It is filed as cell-based. The note with it: Salmonella enterica. Here is the method:
as §1, §2

Experiment [3] has as its target T1, PBP3 of E. coli. The experiment is described as follows: Fluorescence polarisation competition binding assay Method 1 (BODIPY labelled penicillin tracer). The note with it: competition with Bocillin (BODIPY-penicillin). Here is the method: Fluorescence polarisation competition was carried out using a BODIPY labelled Penicillin tracer and unlabelled peptides, for competition to an unmodified PBP protein. Polarisation was measured using a PHERAstar FS by BMG Labtech fitted with a FP 485 520 520 optic module.
Fluorescent BODIPY labelled penicillin at 5 mM in DMSO were diluted to 6.25 nM in binding buffer (10 mM HEPES, pH8, 300 mM NaCl, 2% glycerol). Unmodified PBP were diluted to 2 μM in binding buffer. A two-fold dilution series of unmodified peptide was prepared across 12 wells in binding buffer, with the highest final well concentration being 60 μM, and the lowest concentration being 50 nM. 5 μl of the unmodified peptide dilution series or Carbenicillin were added to 12 wells of a 384-Well NBS™ Low Volume Microplate (Fisher Scientific). 10 μl diluted fluorescent BODIPY labelled penicillin (6.25 nM) were then added to the 12 wells containing the unmodified peptide dilutions. […]
Fluorescence polarisation was measured every 5 minutes for a period of one hour at room temperature. […]
Data were analysed in GraphPad software to derive values for the inhibition constant. […]

For the next experiment, the system named is E. cloacae (NCTC 13405). In words: MIC assay (10 μl), E. cloacae. The class given is cell-based. The note with it: Enterobacter cloacae, NCTC13405. Here is the method:
as §1, §2

The subject of experiment [4] is E. Coli GKCW102 (WT-pore). The experiment is described as follows: MIC assay, E. coli GKCW102. The class given is cell-based. The note with it: Escherichia coli. Here is the method:
as §3, §4, §5, §6, §7

For a further experiment, the target named is T2, S. pneumoniae PBP1a (S. pneumoniae, UniProt Q04707 37-719, limits assumed).
T2 sequence (looked up): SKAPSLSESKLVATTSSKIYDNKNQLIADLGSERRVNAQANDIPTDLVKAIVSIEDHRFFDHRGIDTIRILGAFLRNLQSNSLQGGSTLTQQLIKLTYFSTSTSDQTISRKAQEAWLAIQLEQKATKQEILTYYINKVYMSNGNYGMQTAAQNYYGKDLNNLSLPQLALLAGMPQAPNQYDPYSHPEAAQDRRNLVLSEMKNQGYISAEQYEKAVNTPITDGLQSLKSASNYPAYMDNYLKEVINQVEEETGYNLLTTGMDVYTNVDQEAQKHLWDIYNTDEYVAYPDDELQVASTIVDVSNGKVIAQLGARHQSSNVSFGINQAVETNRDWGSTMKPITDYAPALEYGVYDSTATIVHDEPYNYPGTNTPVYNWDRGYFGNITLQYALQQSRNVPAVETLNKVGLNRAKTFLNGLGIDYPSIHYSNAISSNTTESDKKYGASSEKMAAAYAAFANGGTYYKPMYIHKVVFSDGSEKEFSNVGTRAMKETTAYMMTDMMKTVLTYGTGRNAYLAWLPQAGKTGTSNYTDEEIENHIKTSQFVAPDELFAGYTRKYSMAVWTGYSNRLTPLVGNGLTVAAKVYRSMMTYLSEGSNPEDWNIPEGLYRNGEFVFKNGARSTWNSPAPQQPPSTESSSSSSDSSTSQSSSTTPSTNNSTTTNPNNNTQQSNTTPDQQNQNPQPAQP
In words: fluorescence polarisation direct binding; fluorescein-labelled peptide, PBP titrated.

A further experiment concerns the target T3, PBP3 of P. aeruginosa (P. aeruginosa, UniProt G3XD46 50-579, limits assumed).
T3 construct: also called P. aeruginosa PBP3
Described as above.

The target in experiment [5] is T4, PBP3 of E. coli (E. coli, UniProt P0AD68 57-577, limits assumed).
T4 construct: also called E. coli PBP3; FtsI
T4 sequence (looked up): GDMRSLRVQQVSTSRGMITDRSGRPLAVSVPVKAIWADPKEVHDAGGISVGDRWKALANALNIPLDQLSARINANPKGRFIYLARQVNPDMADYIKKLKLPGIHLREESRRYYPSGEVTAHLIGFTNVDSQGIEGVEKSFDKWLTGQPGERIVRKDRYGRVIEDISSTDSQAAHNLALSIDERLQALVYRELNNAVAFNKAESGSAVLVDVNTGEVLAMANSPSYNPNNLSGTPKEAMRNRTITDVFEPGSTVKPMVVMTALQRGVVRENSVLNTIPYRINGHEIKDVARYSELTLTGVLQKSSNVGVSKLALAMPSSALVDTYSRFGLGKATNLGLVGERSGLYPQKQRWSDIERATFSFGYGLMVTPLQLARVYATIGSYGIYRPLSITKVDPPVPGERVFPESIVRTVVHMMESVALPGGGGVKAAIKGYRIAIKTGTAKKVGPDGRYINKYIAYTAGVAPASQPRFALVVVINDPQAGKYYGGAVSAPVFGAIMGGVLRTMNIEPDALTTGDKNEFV
The description is as above.

T3 sequence (G3XD46 50-579 limits assumed): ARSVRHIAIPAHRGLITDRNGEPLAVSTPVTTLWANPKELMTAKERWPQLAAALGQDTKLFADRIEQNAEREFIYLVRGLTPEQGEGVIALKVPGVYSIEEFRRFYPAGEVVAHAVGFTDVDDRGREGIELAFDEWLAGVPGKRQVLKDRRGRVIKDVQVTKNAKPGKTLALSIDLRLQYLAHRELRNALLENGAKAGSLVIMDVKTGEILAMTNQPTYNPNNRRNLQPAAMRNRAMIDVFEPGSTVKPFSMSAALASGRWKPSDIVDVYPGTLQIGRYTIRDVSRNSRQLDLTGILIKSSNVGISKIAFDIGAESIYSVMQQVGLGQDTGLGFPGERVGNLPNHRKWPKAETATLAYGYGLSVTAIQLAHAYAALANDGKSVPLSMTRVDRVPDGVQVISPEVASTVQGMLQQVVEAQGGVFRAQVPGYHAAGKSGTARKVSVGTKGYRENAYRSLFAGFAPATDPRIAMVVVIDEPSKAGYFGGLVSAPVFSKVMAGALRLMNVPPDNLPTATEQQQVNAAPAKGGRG

In general, Kd refers to a measure of binding affinity in units of concentration. Regarding `Cc1cc(C)n2c1C=C1C=CC(CCC(=O)Nc3ccc(OCC(=O)N[C@@H]4C(=O)N5[C@@H]4SC(C)(C)[C@@H]5C(=O)O)cc3)=[N+]1[B-]2(F)F` [Bocillin], the Kd on PBP3 of E. coli [1] came out at 440 nM.

By MIC is commonly meant the least concentration at which growth counts as inhibited. Low readings indicate greater potency, high ones weaker potency. Usually Ki stands for the equilibrium dissociation constant of an inhibitor or competing ligand from its target. Higher therefore signals weaker binding. As for `CC1(C)S[C@@H]2[C@H](NC(=O)C(C(=O)O)c3ccccc3)C(=O)N2[C@H]1C(=O)O` (stereo partly drawn) [Carbenicillin, reference compound], the minimal inhibitory concentration (MIC) with E. coli (ATCC 25922) stood at 16 µg/mL (≈ 42.3 µM); in the experiment on E. Coli GKCW103 (ΔToIC) it was 2.3 µg/mL (≈ 6.08 µM); in the experiment with E. Coli GKCW101 (WT), 14 µg/mL (≈ 37 µM); in [2], 16 µg/mL (≈ 42.3 µM); with E. cloacae (NCTC 13405), 256 µg/mL (≈ 677 µM); in experiment [4], 0.8 µg/mL (≈ 2.11 µM). The same molecule yielded a Ki on PBP3 of E. coli [3] of 520 nM.

ACHDWDYRHLCYWRCA[Sar][Sar][Sar][Sar][Sar][Sar]K-fluorescein (linker 2-11-15 via TATA, Bicyclic peptide) [BCY9383 with fluorescein appended to the C-terminus with a Sar6-Lysine linker] returned a Kd in the experiment with S. pneumoniae PBP1a of 400 nM.

The molecule ACPYTSCPPHTMCA[Sar][Sar][Sar][Sar][Sar][Sar]K-fluorescein (linker 2-7-13 via TATA, Bicyclic peptide) [BCY9378 with fluorescein appended to the C-terminus with a Sar6-Lysine linker] gave a dissociation constant (Kd) with S. pneumoniae PBP1a of 80 nM.

B1: BCY12130 with fluorescein appended to the C-terminus with a Sar6-Lysine linker (peptide)
peptide: ACSFPKCPWVEGCA
modifications: Ci, Cii and Ciii cyclised with TATA scaffold; fluorescein appended to the C-terminus with a Sar6-Lysine linker
notes: Bicyclic peptide
As for B1, in the experiment with PBP3 of P. aeruginosa, the binding result was “no binding”. The Kd with PBP3 of E. coli [5] came out at 2000 nM.
